Patent US12036312B2, “Non-aqueous topical compositions comprising a halogenated salicylanilide” (priority 2016, dated 2024)
In brackets after ≈: the same amount, converted by molar mass.

Test system: S. aureus
Assay: MIC assay according to CLSI criteria, Example 2, S. aureus strains
Assay type: cell-based, Staphylococcus aureus
Conditions: Staphylococcus aureus
Text: Chosen for its relevance regarding bacterial skin infections, the methicillin-resistant S. aureus (MRSA) 01 strain was used as the primary test microorganism. This strain is a community-acquired MRSA clinical isolate of USA 300 type, from a skin abscess.
Two-hundred-four other MRSA and methicillin-sensitive S. aureus strains, and 4 Streptococcus pyogenes strains, were also included in the study. These covered fusidic acid- and mupirocin-resistant strains, these two types of resistance being of clinical relevance.
Strains were conserved in Luria Bertani (LB) Broth (S. aureus) or Brain Heart Infusion (BHI) (S. pyogenes) supplemented with glycerol 15% (v/v) at −80° C., and reactivated by isolation on LB (S. aureus) or BHI (S. pyogenes) agar plates. Strains were cultivated in Mueller Hinton (MH) Broth-cation adjusted (S. aureus) or BHI (S. pyogenes). All strains were cultivated aerobically (microaerobically for S. pyogenes strains) at 37° C.
Bacterial cultures were stopped in their exponential growth phase and plates were inoculated with the approximate concentration of 5×10^5 cells per well. Plates were incubated at 37° C. for 18 hours (S. aureus) or 24 hours (S. pyogenes). Optical density at a wavelength of 600 nm was measured at the end of the incubation time.

CN[C@H](CC(C)C)C(=O)N[C@H]1C(=O)N[C@@H](CC(N)=O)C(=O)N[C@H]2C(=O)N[C@H]3C(=O)N[C@H](C(=O)N[C@H](C(=O)O)c4cc(O)cc(O)c4-c4cc3ccc4O)[C@H](O)c3ccc(c(Cl)c3)Oc3cc2cc(c3O[C@@H]2O[C@H](CO)[C@@H](O)[C@H](O)[C@H]2O[C@H]2C[C@](C)(N)[C@H](O)[C@H](C)O2)Oc2ccc(cc2Cl)[C@H]1O [Vancomycin, vancomycin] was tested, and the MIC (MRSA, strain MRSA 102) was 2 µg/mL (≈ 1.38 µM), the MIC (MRSA, strain MRSA 103) was 1 µg/mL (≈ 0.69 µM) and the MIC (MRSA, strain MRSA 104) was 1 µg/mL (≈ 0.69 µM). The MIC (MRSA, strain MRSA 105) was 1 µg/mL (≈ 0.69 µM), the MIC (MRSA, strain MRSA 106) was 1 µg/mL (≈ 0.69 µM) and the MIC (MRSA, strain MRSA 107) was 2 µg/mL (≈ 1.38 µM). For the same compound, the MIC (MRSA, strain MRSA 108) was 1 µg/mL (≈ 0.69 µM), the MIC (MRSA, strain MRSA 109) was 1 µg/mL (≈ 0.69 µM) and the MIC (MRSA, strain MRSA 110) was 1 µg/mL (≈ 0.69 µM). It also gave an MIC (MRSA, strain MRSA 111) of 1 µg/mL (≈ 0.69 µM), an MIC (MRSA, strain MRSA 112) of 1 µg/mL (≈ 0.69 µM) and an MIC (MRSA, strain MRSA 113) of 1 µg/mL (≈ 0.69 µM). It also gave an MIC (MSSA, strain MSSA 01) of 1 µg/mL (≈ 0.69 µM), an MIC (MSSA, strain MSSA 02) of 1 µg/mL (≈ 0.69 µM) and an MIC (NEWMAN, strain Newman) of 2 µg/mL (≈ 1.38 µM). The MIC (strain 9-1862936) was 1 µg/mL (≈ 0.69 µM), the MIC (strain 9-2625962) was 1 µg/mL (≈ 0.69 µM) and the MIC (strain 9-2642158) was 1 µg/mL (≈ 0.69 µM). The MIC (strain 9-2955245) was 1 µg/mL (≈ 0.69 µM), the MIC (strain 9-26422166) was 1 µg/mL (≈ 0.69 µM) and the MIC (strain 000040C) was 1 µg/mL (≈ 0.69 µM). For the same compound, the MIC (strain 000041C) was 1 µg/mL (≈ 0.69 µM), the MIC (strain 000274T) was 1 µg/mL (≈ 0.69 µM) and the MIC (strain 114660U) was 1 µg/mL (≈ 0.69 µM). For the same compound, the MIC (strain 115015T) was 2 µg/mL (≈ 1.38 µM), the MIC (strain 115242C) was 1 µg/mL (≈ 0.69 µM) and the MIC (strain 115263C) was 2 µg/mL (≈ 1.38 µM). It also gave an MIC (strain 115268C) of 1 µg/mL (≈ 0.69 µM), an MIC (strain 115273C) of 1 µg/mL (≈ 0.69 µM) and an MIC (strain 115295C) of 1 µg/mL (≈ 0.69 µM). The MIC (strain 115303C) was 1 µg/mL (≈ 0.69 µM), the MIC (strain 115370U) was 1 µg/mL (≈ 0.69 µM) and the MIC (strain 115427C) was 1 µg/mL (≈ 0.69 µM). The MIC (strain 115445C) was 1 µg/mL (≈ 0.69 µM), the MIC (strain 115561C) was 1 µg/mL (≈ 0.69 µM) and the MIC (strain 115584D) was 2 µg/mL (≈ 1.38 µM). The MIC (strain 115628T) was 2 µg/mL (≈ 1.38 µM), the MIC (strain 115690C) was 2 µg/mL (≈ 1.38 µM) and the MIC (strain 115691T) was 1 µg/mL (≈ 0.69 µM). It also gave an MIC (strain 115740E) of 1 µg/mL (≈ 0.69 µM), an MIC (strain 115810E) of 1 µg/mL (≈ 0.69 µM) and an MIC (strain 115903T) of 1 µg/mL (≈ 0.69 µM). The MIC (strain 116122T) was 1 µg/mL (≈ 0.69 µM), the MIC (strain E5-1029252) was 1 µg/mL (≈ 0.69 µM) and the MIC (strain E5-1029558) was 1 µg/mL (≈ 0.69 µM). For the same compound, the MIC (strain E5-1030440) was 1 µg/mL (≈ 0.69 µM), the MIC (strain E5-1030469) was 2 µg/mL (≈ 1.38 µM) and the MIC (strain E5-1030472) was 1 µg/mL (≈ 0.69 µM). It also gave an MIC (strain E5-1030482) of 1 µg/mL (≈ 0.69 µM), an MIC (strain E5-1033076 (first listing, r204)) of 1 µg/mL (≈ 0.69 µM) and an MIC (strain E5-1033076 (second listing, r205)) of 1 µg/mL (≈ 0.69 µM). For the same compound, the MIC (strain E5-1033088) was 1 µg/mL (≈ 0.69 µM), the MIC (strain E5-1033091) was 1 µg/mL (≈ 0.69 µM) and the MIC (strain E5-1035277) was 1 µg/mL (≈ 0.69 µM). For the same compound, the MIC (strain E5-1035284) was 1 µg/mL (≈ 0.69 µM), the MIC (strain E5-1035775) was 1 µg/mL (≈ 0.69 µM) and the MIC (strain E5-1035779) was 1 µg/mL (≈ 0.69 µM). For the same compound, the MIC (strain E5-1037958) was 1 µg/mL (≈ 0.69 µM), the MIC (strain E5-1037971) was 1 µg/mL (≈ 0.69 µM) and the MIC (strain E5-1038279) was 1 µg/mL (≈ 0.69 µM). The MIC (strain E5-1038286) was 1 µg/mL (≈ 0.69 µM), the MIC (strain E5-1038294) was 1 µg/mL (≈ 0.69 µM) and the MIC (strain E5-1039684) was 1 µg/mL (≈ 0.69 µM). The MIC (strain E5-1039697) was 1 µg/mL (≈ 0.69 µM), the MIC (strain E5-1041977) was 2 µg/mL (≈ 1.38 µM) and the MIC (strain E5-1041979) was 1 µg/mL (≈ 0.69 µM). It also gave an MIC (strain E5-1041980) of 1 µg/mL (≈ 0.69 µM), an MIC (strain E5-1041987) of 1 µg/mL (≈ 0.69 µM) and an MIC (strain E5-1043184) of 1 µg/mL (≈ 0.69 µM). The MIC (strain E5-1043668) was 1 µg/mL (≈ 0.69 µM), the MIC (strain E5-1045179) was 1 µg/mL (≈ 0.69 µM) and the MIC (strain E5-1046019) was 1 µg/mL (≈ 0.69 µM). For the same compound, the MIC (strain E5-1046020) was 1 µg/mL (≈ 0.69 µM), the MIC (strain E5-1046039) was 1 µg/mL (≈ 0.69 µM) and the MIC (strain E5-1046070) was 1 µg/mL (≈ 0.69 µM). The MIC (strain E5-1046074) was 1 µg/mL (≈ 0.69 µM), the MIC (strain E5-1046085) was 2 µg/mL (≈ 1.38 µM) and the MIC (strain E5-1046096) was 1 µg/mL (≈ 0.69 µM). For the same compound, the MIC (strain E5-1046296) was 1 µg/mL (≈ 0.69 µM), the MIC (strain E5-1046297) was 1 µg/mL (≈ 0.69 µM) and the MIC (strain E5-1046298) was 1 µg/mL (≈ 0.69 µM). For the same compound, the MIC (strain E5-1046723) was 2 µg/mL (≈ 1.38 µM), the MIC (strain E5-1047585) was 1 µg/mL (≈ 0.69 µM) and the MIC (strain E5-1047606) was 1 µg/mL (≈ 0.69 µM). The MIC (strain E5-1047924) was 1 µg/mL (≈ 0.69 µM), the MIC (strain E5-1048204) was 2 µg/mL (≈ 1.38 µM) and the MIC (strain E5-1048428) was 1 µg/mL (≈ 0.69 µM). For the same compound, the MIC (strain E5-1048654) was 1 µg/mL (≈ 0.69 µM), the MIC (strain E5-1048670) was 2 µg/mL (≈ 1.38 µM) and the MIC (strain EEFIC 01) was 1 µg/mL (≈ 0.69 µM). For the same compound, the MIC (strain EEFIC 02) was 1 µg/mL (≈ 0.69 µM), the MIC (strain K000772) was 1 µg/mL (≈ 0.69 µM) and the MIC (strain K000796) was 1 µg/mL (≈ 0.69 µM). For the same compound, the MIC (strain K000863) was 1 µg/mL (≈ 0.69 µM), the MIC (strain K000864) was 1 µg/mL (≈ 0.69 µM) and the MIC (strain K000866) was 1 µg/mL (≈ 0.69 µM). For the same compound, the MIC (strain K115498) was 2 µg/mL (≈ 1.38 µM), the MIC (strain K115688) was 2 µg/mL (≈ 1.38 µM) and the MIC (strain K115689) was 2 µg/mL (≈ 1.38 µM). The MIC (strain R000019) was 2 µg/mL (≈ 1.38 µM), the MIC (strain R000020) was 1 µg/mL (≈ 0.69 µM) and the MIC (strain R000024) was 1 µg/mL (≈ 0.69 µM). For the same compound, the MIC (strain U115579) was 1 µg/mL (≈ 0.69 µM).
